Data taken from publication PMC5926292 (Japanese Journal of Cancer Research : Gann, 2000).
In brackets after ≈: the same amount, converted by molar mass.

Tests used:
Experiment in all cases: Colony assay of hematopoietic progenitors
Assay type in all cases: cell-based
Conditions in all cases: Homo sapiens, read-out: IC50 for colony formation
BFU-E = system: BFU-E
CFU-GM = system: CFU-GM
CFU-Mix = system: CFU-Mix

IC50 (BFU-E): 3.1 ng/mL (≈ 5.73 nM)
IC50 (CFU-GM): 4.4 ng/mL (≈ 8.14 nM)
IC50 (CFU-Mix): 7.8 ng/mL (≈ 14.4 nM)
SMILES: C/C=C1\NC(=O)[C@H]2CSSCC/C=C/[C@H](CC(=O)N[C@H](C(C)C)C(=O)N2)OC(=O)[C@H](C(C)C)NC1=O [FK228]
